Results published in patent publication EP0563386A1, “ANTICANCER COMPOSITION AND COMPOUND” (NIPPON SHINYAKU COMPANY, LIMITED, priority 1990, dated 1992).
Structures can show the parent of a compound that is named as a salt.

Experiments:
cancer patients [1] = assay: Clinical use with radiotherapy and chemotherapy, 39 case reports (Test Example 8); assay type: in vivo
Description: Predetermined radiotherapy [each proven focus was irradiated with cobalt 60 gamma rays, […], in simply divided doses at intervals of several days and oily bleomycin was administered intramuscularly in a dose range of 0.5-3 mg/day (a total of not more than 50 mg) 30 minutes before and 30 minutes after each irradiation] was given to the following cancer patients and concomitantly the following prescription was given orally.
Following Test Example 7, the clinical effect was investigated. Radiotherapy, chemotherapy and administration of irsogladine maleate were performed in the same manner as in Test Example 7.

[2] = tested on: WiDr (human colon cancer); assay: Tumor growth inhibition, WiDr implant in nude mice (Test Example 1); assay type: in vivo, BALB/c nude mice; conditions: implant volume on day 18 after transplantation divided by volume at transplantation; irsogladine maleate 10 mg/kg orally once daily from day 14; cyclophosphamide 150 mg/kg intraperitoneally once on day 14; groups of 10
Description: WiDr (human colon cancer) cells subcultured in BALB/c nude mice were dissected to prepare cubes, about 2 mm³ each. These cubes were transplanted subaxillarily into separate BALB/c nude mice using a transplantation needle. The animals were divided into groups of 10 individuals on day 10 after transplantation and the body weight and the diameter of the implant were serially determined. As the compound of this invention, irsogladine maleate, 10 mg/kg, was suspended in 0.5% methylcellulose solution and administered orally once daily beginning day 14 after transplantation. Cyclophosphamide, 150 mg/kg, was dissolved in PBS and administered intraperitoneally once on day 14 after transplantation. The control group received 0.5% methylcellulose solution orally once daily beginning day 14 after transplantation.
The volume of the implant on day 18 after transplantation was divided by the volume at trans plantation. […]
The effect of the compound of this invention as an anticancer agent is clear.

Meth A fibrosarcoma = Meth A fibrosarcoma tumor volume in mice (Test Example 2); assay type: in vivo, BALB/c mice
Description: • (1) The homologus tumor Meth A fibrosarcoma subcultured (ascites type) in BALB/c mice, 5 x 10^5 cells, was transplanted subcutaneously at the flank of 6-week-old male BALB/c mice. Mice having a tumor volume of 70-100 mm³ were selected and divided into groups of 9. Oral single daily administration of the test compound was started and the body weight and tumor volume were serially determined. The volume was determined using the same calculation formula as shown in Test Example 1. The compound of the invention irsogladine maleate, 10 mg/kg, suspended in 0.5% methylcellulose maleate and 5-fluorouracil, 15 mg/kg, dissolved in 0.5% methylcellulose solution were respectively administered orally. The control group received 0.5% methylcellulose solution orally. […] The effect of the com pound of this invention as an anticancer agent is, thus, clear. • (2) As in the above test, mice having a tumor volume of 160-180 mm³ were selected and subjected to the same test as above. The compound of this invention irsogladine maleate, 10 mg/kg, 5-flurorouracil, 30 mg/kg, or as a combination therapy, irsogladine maleate, 10 mg/kg, plus 5-fluorouracil, 30 mg/kg, were administered orally. The control group received the same control material as in the above test orally. […] The anticancer adjuvant activity of the compound of this invention to 5-FU is clear.
The open circle stands for control, the open triangle for 5-FU and the closed circle for the compound of the invention. The tumor volume (mm³) is plotted on the vertical axis and the number of days after drug administration on the horizontal axis.
The open circle stands for control, the open triangle for F-5U, the closed circle for the compound of the invention, the open square for the combination therapy. The tumor volume (mm³) is plotted on the vertical axis and the number of days after drug administration on the horizontal axis.

cancer patients [3] = assay: Clinical use with radiotherapy and chemotherapy, 45 cancer cases (Test Example 7); assay type: in vivo
Description: Predetermined radiotherapy [each proven focus was irradiated with cobalt 60 gamma rays, about 28 Gy, in simply divided doses at intervals of several days and oily bleomycin was administered intramuscularly in a dose range of 0.5-3 mg/day (a total of not more than 50 mg) 30 minutes before and 30 minutes after each irradiation] was given to the following cancer patients and concomitantly the following prescription was given orally.

Nc1nc(N)nc(-c2cc(Cl)ccc2Cl)n1 [irsogladine maleate]
clinical outcome (cancer patients [1]; (1) case (1): person, SCC of the pharynx metastasized to the right neck, about 15 days, with irradiation and chemotherapy): complete resoltuion of the tumor
clinical outcome (cancer patients [1]; (1) case (2): person, SCC of the pharynx metastasized to the left neck, with radiotherapy and chemotherapy): complete resolution of the tumor
clinical outcome (cancer patients [1]; (1) case (3): person, pharyngeal cancer with lymph node and lung metastasis, with radiotherapy and chemotherapy): complete resolution of the tumor
clinical outcome (cancer patients [1]; (1) case (4): person, SCC of the anterior association of the vocal cord, pharyngeal cancer, with radiotherapy and chemotherapy): complete resolution of the tumor
clinical outcome (cancer patients [1]; (1) case (5): person, SCC of the pharynx, metastasis to the mediastinum, with radiotherapy and chemotherapy): complete resolution of the tumor
clinical outcome (cancer patients [1]; (1) case (6): person, tumor in the anterior association of the vocal cord, with radiotherapy and chemotherapy): partial resolution of the tumor
clinical outcome (cancer patients [1]; (1) case (7): person, SCC of the pharynx, with radiotherapy and chemotherapy): complete resolution of the tumor
clinical outcome (cancer patients [1]; (2) case (1): person, TCC of the ureter, after resection, with radiotherapy and chemotherapy): complete resolution of the tumor
clinical outcome (cancer patients [1]; (2) case (2): person, TCC of the ureter, relapsed, with radiotherapy and chemotherapy): partial resolution of the tumor
clinical outcome (cancer patients [1]; (3) case (1): person, SCC of the tongue, metastasis to the left neck, with radiotherapy and chemotherapy): complete resolution of the tumor
clinical outcome (cancer patients [1]; (3) case (2): person, SCC of the tongue with metastasis to the left neck, with radiotherapy and chemotherapy): complete resolution of the tumor
clinical outcome (cancer patients [1]; (4) case (1): person, recurrent breast cancer with bone metastasis, with radiotherapy and chemotherapy): died of injury of cervical vertebra and paraplegia
clinical outcome (cancer patients [1]; (4) case (2): person, recurrent breast cancer, invasive duct carcinoma, with radiotherapy and chemotherapy): complete resolution of the tumor
clinical outcome (cancer patients [1]; (5) case (1): person, breast cancer (first on-set), 3 months, with radiotherapy, chemotherapy and resection): complete resolution of the tumor
clinical outcome (cancer patients [1]; (6) case (1): person, SCC of the epipharynx, metastases to lung and lumbar vertebra, with radiotherapy and chemotherapy): partial resolution of the tumor
clinical outcome (cancer patients [1]; (6) case (2): person, SCC of epipharynx with metastasis to the right neck, with radiotherapy and chemotherapy): complete resolution of the tumor
clinical outcome (cancer patients [1]; (6) case (3): person, pulmonary metastasis from epipharynx SCC, with radiotherapy and chemotherapy, patient later died after mixed infection): tumor disappeared
clinical outcome (cancer patients [1]; (6) case (4): person, maxillary/epipharyngeal cancer group, with irradiation and chemotherapy): partially resolved
clinical outcome (cancer patients [1]; (7) case (1): person, tumor of the right anterior ear, SCC of parotid gland, with radiation therapy and chemotherapeutic agents): tumor disappeared
clinical outcome (cancer patients [1]; (7) case (2): person, SCC of the right external auditory canal, with radiotherapy, chemotherapy and resection): complete resolution
clinical outcome (cancer patients [1]; (7) case (3): person, SCC relapsed in the left anterior ear, with radiotherapy, chemotherapy and resection): completely disappeared
clinical outcome (cancer patients [1]; (8) case (1): person, metastatic lung cancer, primary rectal cancer, dotted shadow of right lower lung field, with radiotherapy and chemotherapy): reduced to 1/4
clinical outcome (cancer patients [1]; (8) case (2): person, metastatic lung cancer, primary hypopharynx cancer, with radiotherapy and chemotherapy): disappeared completely
clinical outcome (cancer patients [1]; (8) case (3): person, metastatic lung cancer, primary esophageal cancer (upper), with radiotherapy and chemotherapy): disappeared completely
clinical outcome (cancer patients [1]; (8) case (4): person, primary pharyngeal cancer, metastases to hili of the lung, with radiotherapy and chemotherapy): the enlargement of the pharynx and of the hili of the lung disappeared
clinical outcome (cancer patients [1]; (8) case (5): person, primary pancreatic carcinoma, pulmonary metastasis, with radiotherapy and chemotherapy): disappeared completely
clinical outcome (cancer patients [1]; (8) case (6): person, primary colon cancer, pulmonary metastasis, with radiotherapy and chemotherapy): Partial resolution
clinical outcome (cancer patients [1]; (9) case (1): person, recurrent ovarian cancer, with chemotherapeutic agents): remained unchanged
clinical outcome (cancer patients [1]; (9) case (2): person, ovarian cancer, metastases to Virchow's nodes, abdominal tumor, with radiotherapy and chemotherapy): disappeared completely
clinical outcome (cancer patients [1]; (9) case (3): person, uterine cancer, SCC, with radiation therapy (40 Gy) and chemotherapy): partial resolution of the tumor
clinical outcome (cancer patients [1]; (9) case (4): person, stomach cancer with ascites, after resection, with irradiation and chemotherapy): died of DIC
clinical outcome (cancer patients [1]; (10) case (1): person, colorectal cancer, tubular ADC, with radiotherapy and chemotherapy): died of mixed infection
clinical outcome (cancer patients [1]; (10) case (2): person, colorectal cancer with pulmonary and nodal metastasis, ascites, with radiotherapy and chemotherapy): ascites were reduced and the patient became ambulant
clinical outcome (cancer patients [1]; (10) case (3): person, tumor of the right hypogastrium, CK and ADC, with radiotherapy and chemotherapy): ascites were removed
clinical outcome (cancer patients [1]; (11) case (1): person, liposarcoma of the left chest wall with metastasis to the right mediastinum, with radiotherapy and chemotherapy): Partial resolution
clinical outcome (cancer patients [1]; (11) case (2): person, pelvic chondrosarcoma, treatment from November 1990 with radiotherapy and chemotherapy): living as of February 1991
clinical outcome (cancer patients [1]; (11) case (3): person, chondrosarcoma of the right leg, pulmonary metastasis, with radiotherapy and chemotherapy): Pain was relieved
clinical outcome (cancer patients [1]; (11) case (4): person, malignant lymphoma, tumor 4 x 4 cm at start, with radiotherapy and chemotherapy): Complete resolution
clinical outcome (cancer patients [1]; (11) case (5): person, malignant multiple schwannoma vertebrae, with radiotherapy and chemotherapy): paralysis of limbs was found
patients who died (cancer patients [1]; of the 39 patients of Test Example 8): four
complete or partial resolution, overall (cancer patients [1]; summary of the 39 patients of Test Example 8): no patients in whom complete or partial resolution was not obtained
Tumor volume ratio [2]: 1.52 ± 0.08
tumor volume (effect versus 5-FU) (Meth A fibrosarcoma; Test (1): start tumor volume 70-100 mm³, irsogladine maleate 10 mg/kg orally once daily, comparator 5-fluorouracil 15 mg/kg orally, Fig. 1): effect comparable to that of 5-FU, 15 mg/kg
tumor-inhibitory effect, single drug (Meth A fibrosarcoma; Test (2): start tumor volume 160-180 mm³, irsogladine maleate 10 mg/kg or 5-fluorouracil 30 mg/kg orally, Fig. 2): tumor-inhibitory effect
tumor-inhibitory effect, combination therapy (Meth A fibrosarcoma; Test (2): start tumor volume 160-180 mm³, irsogladine maleate 10 mg/kg plus 5-fluorouracil 30 mg/kg orally, Fig. 2): more remarkable
disappearance of tumor by palpation or diagnostic imaging (cancer patients [3]; 11 cases of breast cancer, 4 weeks after initiation, 2 mg/day x 2 orally with radiotherapy and chemotherapy): disappearance of tumor was confirmed
disappearance of tumor by palpation or diagnostic imaging (cancer patients [3]; 13 cases of pharyngeal cancer and cancer of upper esophagus, 4 weeks after initiation, 2 mg/day x 2 orally with radiotherapy and chemotherapy): disappearance of tumor was confirmed
cases with disappearance of tumor confirmed by palpation or diagnostic imaging (cancer patients [3]; all 45 cases of Test Example 7): 45 cases
disappearance of tumor by palpation or diagnostic imaging (cancer patients [3]; five cases of rectal cancer, 4 weeks after initiation, 2 mg/day x 2 orally with radiotherapy and chemotherapy): disappearance of tumor was confirmed
disappearance of tumor by palpation or diagnostic imaging (cancer patients [3]; nine cases of maxillary cancer and epipharyngeal cancer, 4 weeks after initiation, 2 mg/day x 2 orally with radiotherapy, bleomycin, carmofur, doxifluridine, tegafur): disappearance of tumor was confirmed
cases with disappearance of tumor histologically verified by biopsy (cancer patients [3]; of the 45 cases of Test Example 7): 14 cases
disappearance of tumor by diagnostic imaging (cancer patients [3]; one case of stomach cancer, 4 weeks after initiation, 2 mg/day x 2 orally with radiotherapy and chemotherapy): disappearance of tumor was confirmed
disappearance of tumor by palpation or diagnostic imaging (cancer patients [3]; six cases of bladder cancer, renal cancer, ovarian cancer, etc., 4 weeks after initiation, 2 mg/day x 2 orally with radiotherapy and chemotherapy): disappearance of tumor was confirmed
